# Laboratory results reported in US7846941B2, “Compounds modulating c-kit and c-fms activity and uses therefor” (Plexxikon, Inc., priority 2005, dated 2010).
# Test system: cells with activating c-kit mutations
# Assay: not given
# Conditions: mutations in the catalytic region of c-kit; cited from earlier work
row,SMILES,inhibition of cells with c-kit mutations
1,Cc1ccc(NC(=O)c2ccc(CN3CCN(C)CC3)cc2)cc1Nc1nccc(-c2cccnc2)n1 [STI571],did not inhibit

# Target: c-kit (Homo sapiens, UniProt P10721)
# Assay: c-kit assays of Examples 40 and 41 (AlphaScreen and 33P kinase assays, M-07e proliferation and phosphorylation)
# Conditions: not given
# c-kit, sequence (P10721 with tags, fused parts or gaps): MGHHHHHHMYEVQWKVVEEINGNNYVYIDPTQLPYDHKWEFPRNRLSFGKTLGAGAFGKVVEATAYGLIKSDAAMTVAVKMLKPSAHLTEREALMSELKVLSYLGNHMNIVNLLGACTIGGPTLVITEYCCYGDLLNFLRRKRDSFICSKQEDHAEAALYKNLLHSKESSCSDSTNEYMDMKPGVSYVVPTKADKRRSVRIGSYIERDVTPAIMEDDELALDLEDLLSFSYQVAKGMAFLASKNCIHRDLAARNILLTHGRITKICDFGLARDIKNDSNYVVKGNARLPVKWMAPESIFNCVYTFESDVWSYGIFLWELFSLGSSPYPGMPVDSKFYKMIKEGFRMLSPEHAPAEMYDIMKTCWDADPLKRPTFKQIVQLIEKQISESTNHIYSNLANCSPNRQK
row,SMILES,IC50 [nM]
1,"FC(F)(F)c1ccc(CNc2ccc(Cc3c[nH]c4ncccc34)cn2)cc1 [Compound P-0003, [5-(1H-Pyrrolo[2,3-b]pyridin-3-ylmethyl)-pyridin-2-yl]-(4-trifluoromethyl-benzyl)-amine]",< 1000
2,"Clc1ccc(CNc2ccc(Cc3c[nH]c4nccc(Cl)c34)cn2)cc1 [Compound P-0009, [5-(4-chloro-1H-pyrrolo[2,3-b]pyridin-3-ylmethyl)-pyridin-2-yl]-(4-chloro-benzyl)-amine]",< 1000
3,"COc1nc(NCc2ccc(C(F)(F)F)cc2)ccc1Cc1c[nH]c2ncccc12 [Compound P-0012, [6-Methoxy-5-(1H-pyrrolo[2,3-b]pyridin-3-ylmethyl)-pyridin-2-yl]-(4-trifluoromethyl-benzyl)-amine]",< 1000
4,"O=C(c1ccc(NCc2cccc(F)c2)nc1)c1c[nH]c2ncccc12 [Compound P-0016, [6-(3-Fluoro-benzylamino)-pyridin-3-yl]-(1H-pyrrolo[2,3-b]pyridin-3-yl)-methanone]",< 1000
5,"CC(C)(C)Oc1ccc(Cc2c[nH]c3ncccc23)cn1 [Compound P-0020, 3-(6-tert-Butoxy-pyridin-3-ylmethyl)-1H-pyrrolo[2,3-b]pyridine]",< 1000
6,"CC(C)Nc1ccc(C(=O)c2c[nH]c3ncccc23)cn1 [Compound P-0024, (6-Isopropylamino-pyridin-3-yl)-(1H-pyrrolo[2,3-b]pyridin-3-yl)-methanone]",< 1000
7,"CC(C)CNc1ccc(C(=O)c2c[nH]c3ncccc23)cn1 [Compound P-0025, (6-Isobutylamino-pyridin-3-yl)-(1H-pyrrolo[2,3-b]pyridin-3-yl)-methanone]",< 1000
8,"O=C(c1ccc(Nc2cccc(OCc3ccccc3)c2)nc1)c1c[nH]c2ncccc12 [Compound P-0026, [6-(3-Benzyloxy-phenylamino)-pyridin-3-yl]-(1H-pyrrolo[2,3-b]pyridin-3-yl)-methanone]",< 1000
9,"CC(C)CNc1ccc(Cc2c[nH]c3ncccc23)cn1 [Compound P-0028, Isobutyl-[5-(1H-pyrrolo[2,3-b]pyridin-3-ylmethyl)-pyridin-2-yl]-amine]",< 1000
10,"O=C(c1ccc(NCC2CC2)nc1)c1c[nH]c2ncccc12 [Compound P-0030, [6-(Cyclopropylmethyl-amino)-pyridin-3-yl]-(1H-pyrrolo[2,3-b]pyridin-3-yl)-methanone]",< 1000
11,"O=C(c1ccc(NCC2CCCCC2)nc1)c1c[nH]c2ncccc12 [Compound P-0031, [6-(Cyclohexylmethyl-amino)-pyridin-3-yl]-(1H-pyrrolo[2,3-b]pyridin-3-yl)-methanone]",< 1000
12,"c1cnc2[nH]cc(Cc3ccc(NCC4CC4)nc3)c2c1 [Compound P-0032, Cyclopropylmethyl-[5-(1H-pyrrolo[2,3-b]pyridin-3-ylmethyl)-pyridin-2-yl]-amine]",< 1000
13,"c1cnc2[nH]cc(Cc3ccc(NCC4CCCCC4)nc3)c2c1 [Compound P-0033, Cyclohexylmethyl-[5-(1H-pyrrolo[2,3-b]pyridin-3-ylmethyl)-pyridin-2-yl]-amine]",< 1000
14,"COc1cnc2[nH]cc(Cc3ccc(NCc4ccc(C(F)(F)F)cc4)nc3)c2c1 [Compound P-0053, [5-(5-Methoxy-1H-pyrrolo[2,3-b]pyridin-3-ylmethyl)-pyridin-2-yl]-(4-trifluoromethyl-benzyl)-amine]",< 1000
15,"FC(F)(F)c1ccc(CNc2ccc(Cc3c[nH]c4ncc(Cl)cc34)cn2)cc1 [Compound P-0054, [5-(5-Chloro-1H-pyrrolo[2,3-b]pyridin-3-ylmethyl)-pyridin-2-yl]-(4-trifluoromethyl-benzyl)-amine]",< 1000
16,"Clc1cccc(COc2ccc(Cc3c[nH]c4ncccc34)cn2)c1 [Compound P-0055, 3-[6-(3-Chloro-benzyloxy)-pyridin-3-ylmethyl]-1H-pyrrolo[2,3-b]pyridine]",< 1000
17,"Clc1ccc(COc2ccc(Cc3c[nH]c4ncccc34)cn2)cc1 [Compound P-0056, 3-[6-(4-Chloro-benzyloxy)-pyridin-3-ylmethyl]-1H-pyrrolo[2,3-b]pyridine]",< 1000
18,"FC(F)(F)c1cccc(COc2ccc(Cc3c[nH]c4ncccc34)cn2)c1 [Compound P-0057, 3-[6-(3-Trifluoromethyl-benzyloxy)-pyridin-3-ylmethyl]-1H-pyrrolo[2,3-b]pyridine]",< 1000

row,SMILES,IC50 [nM]
1,"COc1cnc2[nH]cc(Cc3ccc(NCc4ccc(Cl)cc4)nc3)c2c1 [Compound P-0058, (4-Chloro-benzyl)-[5-(5-methoxy-1H-pyrrolo[2,3-b]pyridin-3-ylmethyl)-pyridin-2-yl]-amine]",< 1000
2,"Clc1ccc(CNc2ccc(Cc3c[nH]c4ncc(Cl)cc34)cn2)cc1 [Compound P-0059, (4-Chloro-benzyl)-[5-(5-chloro-1H-pyrrolo[2,3-b]pyridin-3-ylmethyl)-pyridin-2-yl]-amine]",< 1000
3,"CCN(CC)CCOc1cnc2[nH]cc(Cc3ccc(NCc4ccc(C(F)(F)F)cc4)nc3)c2c1 [Compound P-0060, {5-[5-(2-Diethylamino-ethoxy)-1H-pyrrolo[2,3-b]pyridin-3-ylmethyl]-pyridin-2-yl}-(4-trifluoromethyl-benzyl)-amine]",< 1000
4,"Oc1cnc2[nH]cc(Cc3ccc(NCc4ccc(C(F)(F)F)cc4)nc3)c2c1 [Compound P-0061, 3-[6-(4-Trifluoromethyl-benzylamino)-pyridin-3-ylmethyl]-1H-pyrrolo[2,3-b]pyridin-5-ol]",< 1000
5,"Oc1cnc2[nH]cc(Cc3ccc(NCc4ccc(Cl)cc4)nc3)c2c1 [Compound P-0062, 3-[6-(4-Chloro-benzylamino)-pyridin-3-ylmethyl]-1H-pyrrolo[2,3-b]pyridin-5-ol]",< 1000
6,"Clc1ccc(CNc2ccc(Cc3c[nH]c4ncc(OCCN5CCOCC5)cc34)cn2)cc1 [Compound P-0063, (4-Chloro-benzyl)-{5-[5-(2-morpholin-4-yl-ethoxy)-1H-pyrrolo[2,3-b]pyridin-3-ylmethyl]-pyridin-2-yl}-amine]",< 1000
7,"FC(F)(F)c1ccc(CNc2ccc(Cc3c[nH]c4ncc(OCCN5CCCC5)cc34)cn2)cc1 [Compound P-0064, {5-[5-(2-Pyrrolidin-1-yl-ethoxy)-1H-pyrrolo[2,3-b]pyridin-3-ylmethyl]-pyridin-2-yl}-(4-trifluoromethyl-benzyl)-amine]",< 1000
8,"FC(F)(F)c1ccc(CNc2ccc(Cc3c[nH]c4ncc(OCCN5CCOCC5)cc34)cn2)cc1 [Compound P-0065, {5-[5-(2-Morpholin-4-yl-ethoxy)-1H-pyrrolo[2,3-b]pyridin-3-ylmethyl]-pyridin-2-yl}-(4-trifluoromethyl-benzyl)-amine]",< 1000
9,"CCN(CC)CCCOc1cnc2[nH]cc(Cc3ccc(NCc4ccc(C(F)(F)F)cc4)nc3)c2c1 [Compound P-0066, {5-[5-(3-Diethylamino-propoxy)-1H-pyrrolo[2,3-b]pyridin-3-ylmethyl]-pyridin-2-yl}-(4-trifluoromethyl-benzyl)-amine]",< 1000
10,"CCN(CC)CCCOc1cnc2[nH]cc(Cc3ccc(NCc4ccc(Cl)cc4)nc3)c2c1 [Compound P-0069, (4-Chloro-benzyl)-{5-[5-(3-diethylamino-propoxy)-1H-pyrrolo[2,3-b]pyridin-3-ylmethyl]-pyridin-2-yl}-amine]",< 1000
11,"O=S(=O)(Nc1ccc(Cc2c[nH]c3ncccc23)cn1)c1ccc(C(F)(F)F)cc1 [Compound P-0071, N-[5-(1H-Pyrrolo[2,3-b]pyridin-3-ylmethyl)-pyridin-2-yl]-4-trifluoromethyl-benzenesulfonamide]",< 1000
12,"O=C(Nc1ccc(Cc2c[nH]c3ncccc23)cn1)c1ccc(C(F)(F)F)cc1 [Compound P-0072, N-[5-(1H-Pyrrolo[2,3-b]pyridin-3-ylmethyl)-pyridin-2-yl]-4-trifluoromethyl-benzamide]",< 1000
13,"O=C(Nc1ccc(Cc2c[nH]c3ncccc23)cn1)c1ccc(F)cc1 [Compound P-0073, 4-Fluoro-N-[5-(1H-pyrrolo[2,3-b]pyridin-3-ylmethyl)-pyridin-2-yl]-benzamide]",< 1000
14,"O=C(Nc1ccc(Cc2c[nH]c3ncccc23)cn1)c1ccc(Cl)cc1 [Compound P-0074, 4-Chloro-N-[5-(1H-pyrrolo[2,3-b]pyridin-3-ylmethyl)-pyridin-2-yl]-benzamide]",< 1000
15,"C[C@H](Nc1ccc(Cc2c[nH]c3ncccc23)cn1)c1ccc(Cl)cc1 [Compound P-0075, [(S)-1-(4-Chloro-phenyl)-ethyl]-[5-(1H-pyrrolo[2,3-b]pyridin-3-ylmethyl)-pyridin-2-yl]-amine]",< 1000
16,"Clc1ccc(NCc2ccc(Cc3c[nH]c4ncccc34)cn2)cc1 [Compound P-0078, (4-Chloro-phenyl)-[5-(1H-pyrrolo[2,3-b]pyridin-3-ylmethyl)-pyridin-2-ylmethyl]-amine]",< 1000
17,"Fc1nc(NCc2ccc(Cl)cc2)ccc1Cc1c[nH]c2ncccc12 [Compound P-0082, (4-Chloro-benzyl)-[6-fluoro-5-(1H-pyrrolo[2,3-b]pyridin-3-ylmethyl)-pyridin-2-yl]-amine]",< 1000
